The source made the active and inactive calls. The calls are words filed in the database; no cut-off is given here.
Columns and labels:
[1] = biological target: T1, N-formyl peptide receptor 2 (Homo sapiens) (UniProt P25090); assay: Antagonist activity against human FPR2 expressed in human HL-60 cells assessed as inhibition of WKYMVM-induced calcium mobilization preincubated for 10 mins followed by WKYMVM addition and measured every 5s for 240s by Fluo4AM dye based scanning fluorimetric analysis; type: functional, cell-based; conditions: time 840.0 sec
T1 sequence (whole entry): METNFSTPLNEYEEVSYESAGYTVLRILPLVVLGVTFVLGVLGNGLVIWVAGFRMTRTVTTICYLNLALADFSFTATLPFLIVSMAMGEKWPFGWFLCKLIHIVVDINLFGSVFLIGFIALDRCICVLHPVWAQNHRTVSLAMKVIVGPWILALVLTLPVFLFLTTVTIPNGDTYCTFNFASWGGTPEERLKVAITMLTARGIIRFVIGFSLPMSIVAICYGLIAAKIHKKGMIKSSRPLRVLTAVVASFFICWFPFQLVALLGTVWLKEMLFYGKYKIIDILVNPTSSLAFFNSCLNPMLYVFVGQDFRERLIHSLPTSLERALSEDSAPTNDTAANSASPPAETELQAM

fMet-Leu-Phe receptor [2] = biological target: T2, fMet-Leu-Phe receptor (Homo sapiens, UniProt P21462); assay: Antagonist activity against human FPR1 expressed in human HL-60 cells assessed as inhibition of fMLF-induced calcium mobilization preincubated for 30 mins followed by fMLF addition and measured every 5s for 240s by Fluo4AM dye based scanning fluorimetric analysis; type: functional, cell-based
T2 sequence (P21462 whole entry): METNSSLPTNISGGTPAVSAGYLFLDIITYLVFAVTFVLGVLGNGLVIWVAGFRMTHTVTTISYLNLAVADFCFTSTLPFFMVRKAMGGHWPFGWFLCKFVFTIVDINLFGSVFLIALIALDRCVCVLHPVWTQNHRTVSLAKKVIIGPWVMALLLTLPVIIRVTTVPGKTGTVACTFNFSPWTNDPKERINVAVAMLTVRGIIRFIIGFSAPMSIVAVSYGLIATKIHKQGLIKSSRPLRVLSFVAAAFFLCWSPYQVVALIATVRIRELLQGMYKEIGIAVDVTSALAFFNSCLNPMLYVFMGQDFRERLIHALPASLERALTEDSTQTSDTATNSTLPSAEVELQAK

[3] = Metabolic stability of the compound in rat liver microsomes assessed as parent compound remaining at 10 uM preincubated for 10 mins followed by NADPH addition and measured after 30 mins by LC-MS analysis; type: ADME, Microsome; conditions: time 40 min, read-out: Stability
NCI-N87 [4] = assay: Induction of apoptosis in human NCI-N87 cells assessed as viable cells at 5 uM measured after 48 hrs in presence of FPR1 antagonist, fMLF by Muse Annexin V cytofluorimetric analysis (reference value: […]%); type: functional; conditions: read-out: Activity
AGS [5] = assay: Induction of apoptosis in human AGS cells assessed as viable cells at 5 uM measured after 48 hrs in presence of FPR1 antagonist, fMLF by Muse Annexin V cytofluorimetric analysis (reference value: 87.1%); type: functional; conditions: read-out: Activity
AGS [6] = assay: Induction of apoptosis in human AGS cells assessed as viable cells at 5 uM measured after 48 hrs by Muse Annexin V cytofluorimetric analysis (reference value: 85.9%); type: functional; conditions: read-out: Activity
NCI-N87 [7] = assay: Induction of apoptosis in human NCI-N87 cells assessed as viable cells at 5 uM measured after 48 hrs by Muse Annexin V cytofluorimetric analysis (reference value: 69.9%); type: functional; conditions: read-out: Activity
fMet-Leu-Phe receptor [8] = biological target: T2, fMet-Leu-Phe receptor; assay: Antagonist activity against human FPR1 expressed in human HL-60 cells assessed as inhibition of fMLF-induced calcium mobilization preincubated for 10 mins followed by fMLF addition and measured every 5s for 240s by Fluo4AM dye based scanning fluorimetric analysis; type: functional, cell-based

Row | inhibition [1] | IC50 (fMet-Leu-Phe receptor [2]) | SMILES | other results
1 | inactive |  | CCCCc1cc2c(=O)c(-c3ccccc3OC)c(C)oc2cc1OC(C)=O | 
2 |  | 1900 nM | COc1ccccc1-c1c(C)oc2cc(OC(=O)c3ccco3)ccc2c1=O | 
3 | inactive |  | CCCCCc1cc2c(=O)c(-c3ccccc3OC)c(C)oc2cc1OC(C)=O | 
4 |  |  | CCCCCCC(=O)Oc1cc2oc(C)c(-c3ccccc3OC)c(=O)c2cc1C | remaining at 0.5 h, 10 µM [3]: 0%
5 |  |  | CCCCCCc1cc2c(=O)c(-c3ccccc3OC)c(C)oc2cc1OC(C)=O | viability at 5 µM (NCI-N87 [4]): 45.5%; remaining at 0.5 h, 10 µM [3]: 0%; viability at 5 µM (AGS [5]): 46.9%; viability at 5 µM (AGS [6]): 52%; viability at 5 µM (NCI-N87 [7]): 45.1%
6 | inactive |  | CCCCCCC(=O)Oc1cc2oc(C)c(-c3cccc(OC)c3)c(=O)c2cc1C | 
7 |  | 310 nM | CCCCCCc1cc2c(=O)c(-c3nc4ccccc4n3C)c(C)oc2cc1OC(C)=O | 
8 |  |  | CCCCCCc1cc2c(=O)c(-c3ccccc3OC)c(C(F)(F)F)oc2cc1OC(C)=O | remaining at 0.5 h, 10 µM [3]: 0%
9 | inactive |  | CCCc1cc2c(=O)c(-c3cccc(OC)c3)c(C)oc2cc1OC(C)=O | 
10 |  | 3100 nM | Cc1oc2cc(OC(=O)c3ccco3)ccc2c(=O)c1-c1nc2ccccc2n1C | 
11 | inactive |  | CCCCCCc1cc2c(=O)c(-c3cccc(OC)c3)c(C(F)(F)F)oc2cc1OC(C)=O | 
12 |  | 440 nM | COc1ccccc1-c1c(C(F)(F)F)oc2cc(OC(=O)c3ccco3)ccc2c1=O | 
13 |  | 1400 nM | CCc1cc2c(=O)c(-c3nc4ccccc4n3C)c(C)oc2cc1OC(C)=O | 

Row | SMILES | inhibition [1] | IC50 (fMet-Leu-Phe receptor [2]) | other results
14 | CCCc1cc2c(=O)c(-c3ccccc3OC)c(C)oc2cc1OC(=O)N(C)C | inactive |  | 
15 | CCCCCCc1cc2c(=O)c(-c3ccccc3OC)c(C)oc2cc1OC(=O)N(C)C | inactive |  | IC50 (fMet-Leu-Phe receptor [8]): Not Active
